# Data from US20220175766A1, “COMPOSITIONS AND METHODS OF TREATMENT” (GB004, Inc., priority 2019, published 2022).
# Read-outs that look alike come from different tables or passages of the source.
# Assays:
# [1] = Phase 1a multiple ascending dose study (oral solution): safety and tolerability; assay type: in vivo, human
# Experimental: The primary objective of the study was to assess the safety and tolerability of ascending doses of Compound 1 after multiple oral doses administration. The safety endpoints included TEAE incidence and severity, clinically significant changes in vital signs, ECG parameters, clinical laboratory tests and physical examination.
# Safety and tolerability were assessed by review of vital signs, laboratory results (serum chemistry, hematology and urinalysis), ECG, physical examination findings, AEs, and PK assessment following the Day 1 and Day 7 doses. […] One event of vomiting led to early trial discontinuation in the 240 mg dose group.
# [2] = Phase 1a multiple ascending dose study: Compound 1 concentration in colon tissue (colonic mucosal biopsy); assay type: in vivo, human
# Description: Colonic mucosal biopsy samples were acquired.
# HIF-1α = experiment: Phase 1a multiple ascending dose study: proportion of HIF-1α positive cells in colonic biopsies (immunohistochemistry, manual assessment); assay type: in vivo, human; conditions: for Proportion of HIF-1α Positive Cells, CFB (change from baseline), Mean / Proportion of HIF-1α Positive Cells, CFB (change from baseline), Median: baseline to Day 8
# Experimental: Manual assessment of the proportion of HIF-1α positive cells was conducted in 10 regions of interest, selected in whole tissue sections. (Note, the study was amended to add this immunohistochemistry analysis; thus data is only available for cohorts 4 and 5 (120 mg and 60 mg), cohorts 1-3 lacked this type of biopsy).
# Table 50 presents the proportions of HIF-1α positive cells evaluated at baseline and Day 8, and the change from baseline to Day 8 of the proportion of HIF-1α positive cells. The mean proportion of HIF-1α positive cells ranged from 1% to 80% across all experimental groups.
# [3] = Biopharmaceutical Classification System (BCS) classification; assay type: physicochemical; conditions: low solubility/dissolution rate and high permeability
# Description: Compound 1 can be classified as a BCS Class 2 compound (according to the Biopharmaceutical Classification System as defined by the “Guidance for Industry: Waiver of In Vivo Bioavailability and Bioequivalence studies for immediate release solid oral dosage forms based on a Biopharmaceutics Classification System”) which indicates it has a low solubility/dissolution rate and high permeability.
# [4] = Phase 1a single ascending dose study (oral solution): plasma pharmacokinetics; assay type: in vivo; conditions: male, human; for AUC(0-t): read-out: AUClast, mean (SD); for Cmax: read-out: Cmax, mean (SD)
# Experimental: Compound 1 was administered as the HCl-salt (prepared analogously to Example 2.1).
# Placebo dosing solutions were identical to active, except without Compound 1. […] Since HPβCD concentration remained constant, subjects in Cohort 5 received twice the amount of HPβCD relative to subjects in Cohorts 1 to 4. Dosing, including consumption of rinse water, was completed within 3 minutes, administered in the morning after an overnight fast, and maintained for up to 4 hours after dosing.
# The secondary objective was to characterize the single-dose pharmacokinetic (PK) parameters of Compound 1 after ascending doses.
# Blood samples were collected at baseline, day 1 (0.5, 1, 2, 3, 4, 6, 8, 12, 16, 24 hours post dose), day 2 (30, 36 and 48 hours post dose) and day 8 follow-up visit. Analysis of plasma samples was performed using a validated Liquid Chromatography—Mass Spectrometry and Liquid Chromatography—Tandem Mass Spectrometry (LC-MS/MS) method.
# [5] = Phase 1a single ascending dose study (oral solution): safety and tolerability; assay type: in vivo, human; conditions: all doses evaluated (20-240 mg) in 50 mL or 100 mL vehicle
# Description: The primary objective of the study was to assess the safety and tolerability of ascending dose levels of Compound 1 after single oral dose administration. The safety endpoints included AE incidence, clinically significant changes in vital signs, ECG parameters, clinical laboratory tests and physical examination.
# All subjects underwent a complete physical examination and their medical history and demographic information collected. The body systems evaluated included general appearance, skin, lymphatic, head and neck, EENT (eyes, ears, nose, and throat), chest and lungs, cardiovascular, abdomen, extremities, musculoskeletal and neuromuscular. Vital signs were measured. Blood pressure, pulse, respiratory rate and oral temperature; were taken. Blood and urine samples were collected at screening, pre-baseline, baseline, during the treatment period, and Day 8 follow-up visit; the following clinical laboratory evaluations were conducted. […]
# [6] = Pooled (60 mg and 120 mg), Baseline
# [7] = Pooled (60 mg and 120 mg), Day 8
# [8] = 20 mg, Cohort 1, 20 mg single oral dose (0.4 mg/mL, 50 mL)
# [9] = 60 mg, Cohort 2, 60 mg single oral dose (1.2 mg/mL, 50 mL)
# [10] = 120 mg, Cohort 3, 120 mg single oral dose (2.4 mg/mL, 50 mL)
# [11] = 240 mg, Cohort 4, 240 mg single oral dose (4.8 mg/mL, 50 mL)
# [12] = 240 mg, Cohort 5, 240 mg single oral dose (2.4 mg/mL, 100 mL)
smiles,measurement,setting,value
"CC(C)(C)OC(=O)N1CCN(Cc2ccn(Cc3ccc(Cl)cc3)c(=O)c2O)CC1 [Compound 1, tert-butyl 4-((1-(4-chlorobenzyl)-3-hydroxy-2-oxo-1,2-dihydropyridin-4-yl)methyl)piperazine-1-carboxylate]",Tolerability,[1]; 240 mg dose once daily,less well tolerated
same,Tolerability,[1]; doses up to 120 mg once daily for 8 days,generally well tolerated
same,"Compound 1 Concentration in Colon Tissue, Median (Range)","[2]; Cohort 2, 120 mg",10.75 (0-1150) ng/g
same,"Compound 1 Concentration in Colon Tissue, Median (Range)","[2]; Cohort 3, 240 mg",23.50 (0-301) ng/g
same,"Compound 1 Concentration in Colon Tissue, Median (Range)","[2]; Cohort 4, 120 mg",127.47 (0-3330) ng/g
same,"Compound 1 Concentration in Colon Tissue, Median (Range)","[2]; Cohort 5, 60 mg",102.30 (0-1360) ng/g
same,Compound 1 colon tissue levels (in words),[2]; colonic mucosal biopsy samples,increase in a dose-dependent manner
same,"Proportion of HIF-1α Positive Cells, Mean","HIF-1α; 60 mg, Baseline",6.3%
same,"Proportion of HIF-1α Positive Cells, Median","HIF-1α; 60 mg, Baseline",5.8%
same,"Proportion of HIF-1α Positive Cells, Mean","HIF-1α; 60 mg, Day 8",44.5%
same,"Proportion of HIF-1α Positive Cells, Median","HIF-1α; 60 mg, Day 8",46.5%
same,"Proportion of HIF-1α Positive Cells, CFB (change from baseline), Mean",HIF-1α; 60 mg,38.3%
same,"Proportion of HIF-1α Positive Cells, CFB (change from baseline), Median",HIF-1α; 60 mg,38.0%
same,"Proportion of HIF-1α Positive Cells, Mean","HIF-1α; 120 mg, Baseline",12.0%
same,"Proportion of HIF-1α Positive Cells, Median","HIF-1α; 120 mg, Baseline",6.3%
same,"Proportion of HIF-1α Positive Cells, Mean","HIF-1α; 120 mg, Day 8",44.1%
same,"Proportion of HIF-1α Positive Cells, Median","HIF-1α; 120 mg, Day 8",45.3%
same,"Proportion of HIF-1α Positive Cells, CFB (change from baseline), Mean",HIF-1α; 120 mg,32.1%
same,"Proportion of HIF-1α Positive Cells, CFB (change from baseline), Median",HIF-1α; 120 mg,28.5%
same,"Proportion of HIF-1α Positive Cells, Mean",HIF-1α; [6],9.1%
same,"Proportion of HIF-1α Positive Cells, Median",HIF-1α; [6],5.8%
same,"Proportion of HIF-1α Positive Cells, Mean",HIF-1α; [7],44.3%
same,"Proportion of HIF-1α Positive Cells, Median",HIF-1α; [7],45.3%
same,"Proportion of HIF-1α Positive Cells, CFB (change from baseline), Mean",HIF-1α; Pooled (60 mg and 120 mg),35.2%
same,"Proportion of HIF-1α Positive Cells, CFB (change from baseline), Median",HIF-1α; Pooled (60 mg and 120 mg),29.0%
same,Increase from baseline to Day 8 in proportion of HIF-1α positive cells [mean±SD],HIF-1α; combined group (Pooled; 120 mg and 60 mg cohorts),35.2+28.8
same,BCS classification,[3],BCS Class 2
same,Tmax,[4]; [8],30 min
same,AUC(0-t),[4]; [8],10.7 ng·h/mL
same,Cmax,[4]; [8],2.06 ng/mL
same,Tmax,[4]; [9],30 min
same,AUC(0-t),[4]; [9],14.2 ng·h/mL
same,Cmax,[4]; [9],7.71 ng/mL
same,Tmax,[4]; [10],30 min
same,AUC(0-t),[4]; [10],32.3 ng·h/mL
same,Cmax,[4]; [10],12.4 ng/mL
same,Tmax,[4]; [11],30 min
same,AUC(0-t),[4]; [11],41.3 ng·h/mL
same,Cmax,[4]; [11],25 ng/mL
same,Tmax,[4]; [12],30 min
same,AUC(0-t),[4]; [12],79.5 ng·h/mL
same,Cmax,[4]; [12],30.7 ng/mL
same,Tmax,"[4]; single oral solution dose, healthy male subjects",< 60 min
same,Tmax,[4]; single oral solution formulation dose,30 min
same,Safety and tolerability,[5],safe and well tolerated
